Measured values as given in US20260132413A1, “AROGENATE DEHYDROGENASE POLYNUCLEOTIDES, POLYPEPTIDES AND METHODS OF USING THE SAME” (Wisconsin Alumni Research Foundation, priority 2017, published 2026).
“Also recorded” adds a separate entry of the source.

What was measured:
[1] = target: T1, AtADH2 (Arabidopsis thaliana, UniProt Q9LMR3); experiment: Effector sensitivity of ADH activity of purified recombinant enzyme; assay type: biochemical; conditions: effector at 1 mM
T1 construct: made in house; host or cells: E. coli Rosetta-2 (pGEX-2T)
T1 sequence (Q9LMR3 37-358): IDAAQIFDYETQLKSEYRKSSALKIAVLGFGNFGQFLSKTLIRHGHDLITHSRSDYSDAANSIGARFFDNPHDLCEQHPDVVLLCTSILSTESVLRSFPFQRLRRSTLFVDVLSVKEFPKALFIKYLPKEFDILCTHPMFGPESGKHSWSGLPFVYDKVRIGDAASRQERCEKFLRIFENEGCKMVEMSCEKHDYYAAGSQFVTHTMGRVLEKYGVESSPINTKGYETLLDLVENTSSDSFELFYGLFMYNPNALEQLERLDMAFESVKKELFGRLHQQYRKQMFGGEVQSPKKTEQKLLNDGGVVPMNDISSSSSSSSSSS
Protocol: (§1) […]. The production of reduced cofactor (NADPH) was monitored at 340 nm using a spectrophotometer every two minutes for 10 min. In addition, other effectors (L-Phe, L-Trp, and betanin) were used to test possible inhibition of the enzyme ADH activity at a final concentration of 1 mM. All of the reactions were performed under non-saturated condition, where activity increased linearly depending on reaction times and enzyme concentrations.

[2] = test system: BvADHβ; experiment: Tyr/effector sensitivity of ADH activity of purified recombinant enzyme; assay type: biochemical, Beta vulgaris; conditions: for effect of effector on ADH activity: effector at 1 mM; for inhibition of ADH activity: GST-tagged BvADHβ
Protocol: as §1

[3] = test system: BvADHα; experiment: as above; assay type: biochemical, Beta vulgaris; conditions: for effect of effector on ADH activity: effector at 1 mM
Protocol: as §1

[4] = test system: ADH activity of Dianthus barbatus leaf crude extract; experiment: Tyr sensitivity of ADH activity from plant tissue extracts; assay type: biochemical; conditions: 1 mM arogenate, 1 mM NADP+; for inhibition (%): 0.5 mM effector vs 0 mM, 2 hr
Protocol: (§2) Spinach oleracea seeds (HighMowing, Wolcott, VT) and pink Dianthus barbatus (BloomIQ, Lansing, MI) seedlings were purchased from a nursery and were grown together with Arabidopsis thaliana (ecotype Columbia) in 22° C., 60% humidity, and 12/12 h light cycle growth chamber. Leaves of spinach and Arabidopsis seedlings were harvested at 3-week-old, and Dianthus barbatus leaves were harvested at 6-week-old. The crude extracts of Arabidopsis or Dianthus barbatus were prepared from ˜1 g leaf tissues according to Aryal et al. (2014). For spinach, ˜10 g leaf tissues were used to isolate the plastids according to Aryal et al. (2014) in order to avoid the undesired cytosolic polyphenol oxidase activity. Crude or plastid fractions were desalted by Sephadex G50 column to obtain protein extracts, and protein concentration of all biological replicates were adjusted to 0.06, 0.85, and 0.6 mg/mL for spinach, Dianthus barbatus, and Arabidopsis extracts, respectively. […] The reaction was stopped by adding 20 μL methanol containing 10 μM norvaline as an internal standard. Respective boiled protein extracts were used as negative controls. […]

[5] = test system: ADH activity of spinach leaf plastid extract; experiment: as above; assay type: biochemical, Spinach oleracea; conditions: 1 mM arogenate, 1 mM NADP+; for inhibition (%): 0.5 mM effector vs 0 mM, 2 hr
Protocol: as §2

[6] = test system: ADH activity of Arabidopsis leaf crude extract; experiment: as above; assay type: biochemical, Arabidopsis thaliana; conditions: 1 mM arogenate, 1 mM NADP+; for inhibition (%): 0.5 mM effector vs 0 mM, 2 hr
Protocol: as §2

[7] = test system: NaADHβ; experiment: Tyr sensitivity of ADH activity of purified recombinant enzyme; assay type: biochemical, Nepenthes ventricosa x alata
Protocol: as §1

[8] = test system: SoADHα; experiment: as above; assay type: biochemical, Spinacia oleracea
Protocol: as §1

[9] = 0.5 mM 3-fluoro-Tyr, 2 hr incubation

Row | SMILES | effect of effector on ADH activity [1] | effect of effector on ADH activity [2] | effect of effector on ADH activity [3] | inhibition (%) [4] | inhibition (%) [5] | inhibition (%) [6] | further results
1 | O=C(O)C1=C/C(=C/C=[N+]2/c3cc(O)c(OC4OC(CO)[C@@H](O)C(O)C4O)cc3CC2C(=O)[O-])CC(C(=O)O)N1 (stereo in doubt) [betanin] | did not significantly reduce | did not significantly reduce; also recorded: not inhibited | did not significantly reduce; also recorded: not inhibited | – | – | – | –
2 | NC(Cc1ccc(O)c(F)c1)C(=O)O (centres unmarked) [3-fluoro-Tyr] | – | – | – | 95.0% | 20.7% | 91.6% | ADH activity [4, 9]: 0.9 ± 0.2 nmol/mg protein; ADH activity [5, 9]: 52.7 ± 1.9 nmol/mg protein; ADH activity [6, 9]: 7.8 ± 0.5 nmol/mg protein
3 | N[C@@H](Cc1ccccc1)C(=O)O [Phe, L-phenylalanine] | did not significantly reduce | did not significantly reduce | did not significantly reduce | – | – | – | effect of effector on ADH activity ([2]; listed as phenylalanine): not inhibited; effect of effector on ADH activity ([3]; listed as phenylalanine): not inhibited
4 | N[C@@H](Cc1ccc(O)cc1)C(=O)O [Tyr, L-Tyrosine] | – | – | – | 92-95% | ~21% | 92-95% | inhibition of ADH activity by Tyr [7]: strongly inhibited; Tyr sensitivity of ADH activity [8]: reduced Tyr sensitivity; inhibition of ADH activity ([2]; 100 μM Tyr): 80%; inhibition of ADH activity ([2]; 1 mM Tyr): 100%; reduction of ADH activity ([3]; 1 mM Tyr, GST-tagged BvADHα): half; sensitivity to Tyr ([3]; His-tagged BvADHα, compared with AtADH2): much less sensitivity to Tyr than AtADH2
5 | N[C@@H](Cc1c[nH]c2ccccc12)C(=O)O [tryptophan, L-tryptophan] | did not significantly reduce | did not significantly reduce; also recorded: not inhibited | did not significantly reduce; also recorded: not inhibited | – | – | – | –
